Like-named read-outs stand apart in the source and are kept apart here.
Legend:
[1] = target: T1, KRAS WT (Homo sapiens, UniProt P01116); experiment: Cellular KRAS:RAF Disruption Assay (NanoBRET), KRAS WT; format: cell-based; conditions: HEK293 T cells co-expressing RAF1 and wild type KRAS, 24 hours; read-out: RAS::RAF binding via NanoBRET IC50, KRAS WT
T1 construct: expressed in transfected cells
Experimental: (§1) Cellular KRAS:RAF Disruption Assay
(§2) Stable cell lines (HEK293 T) were generated to co-express RAF1 and mutant or wild type KRAS, as indicated, using the BiBRET vector (Promega). Engineered cell lines were suspended in media (OptiMEM, […]), plated in 384-well plates (8000 cells/well), and allowed to rest for 1.5 hours. Cells were treated with compounds for 24 hours, and NanoBRET NanoGlo substrate (Promega) was added per the manufacturer's instructions.

[2] = target: T2, KRAS G12A (Homo sapiens, UniProt P01116, G12A); experiment: Cellular KRAS:RAF Disruption Assay (NanoBRET), KRAS G12A; format: cell-based; conditions: HEK293 T cells co-expressing RAF1 and KRAS G12A, 24 hours; read-out: RAS::RAF binding via NanoBRET IC50, KRAS G12A
T2 construct: expressed in transfected cells
Experimental: as §1, §2

[3] = target: T3, KRAS G12C (Homo sapiens, UniProt P01116, G12C); experiment: Cellular KRAS:RAF Disruption Assay (NanoBRET), KRAS G12C; format: cell-based; conditions: HEK293 T cells co-expressing RAF1 and KRAS G12C, 24 hours; read-out: RAS::RAF binding via NanoBRET IC50, KRAS G12C
T3 construct: expressed in transfected cells
Experimental: as §1, §2

[4] = target: T4, KRAS G12V (Homo sapiens, UniProt P01116, G12V); experiment: Cellular KRAS:RAF Disruption Assay (NanoBRET), KRAS G12V; format: cell-based; conditions: HEK293 T cells co-expressing RAF1 and KRAS G12V, 24 hours; read-out: RAS::RAF binding via NanoBRET IC50, KRAS G12V
T4 construct: expressed in transfected cells
Experimental: as §1, §2

[5] = target: T5, KRAS G12D (Homo sapiens, UniProt P01116, G12D); experiment: biochemical
Experimental: BIODIPY-labeled GDP (BIODIPY: dipyrrometheneboron difluoride) (400 nM) and recombinant SOS (son of sevenless protein) (10 nM) were added, and the reaction was incubated for 30 minutes. HTRF signal was measured (PerkinElmer Envision), the signal ratio (λem 520/λem 495) was calculated, and IC50 values were calculated from the dose-response curve.

[6] = target: T5, KRAS G12D; experiment: biochemical; remark: listed apart in the source
Experimental: Recombinant GST-RAF1 RBD (Ras binding domain) (9 nM) was added, followed by the addition of SA-Tb (0.25 nM), and the reaction mixture was incubated for 3 hours. HTRF (Homogeneous Time-Resolved Fluorescence) signal was measured (PerkinElmer Envision), the signal ratio (λem 520/λem 495) was calculated, and IC50 values were calculated from the dose-response curve.

T5 sequence (P01116 1-188 isoform P01116-2 G12D): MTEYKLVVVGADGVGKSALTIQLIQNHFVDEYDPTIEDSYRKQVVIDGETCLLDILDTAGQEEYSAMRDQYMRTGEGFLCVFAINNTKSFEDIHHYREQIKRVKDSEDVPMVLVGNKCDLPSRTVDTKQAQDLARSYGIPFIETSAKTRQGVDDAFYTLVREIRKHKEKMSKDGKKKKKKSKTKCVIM
T2 sequence (P01116 1-188 isoform P01116-2 G12A): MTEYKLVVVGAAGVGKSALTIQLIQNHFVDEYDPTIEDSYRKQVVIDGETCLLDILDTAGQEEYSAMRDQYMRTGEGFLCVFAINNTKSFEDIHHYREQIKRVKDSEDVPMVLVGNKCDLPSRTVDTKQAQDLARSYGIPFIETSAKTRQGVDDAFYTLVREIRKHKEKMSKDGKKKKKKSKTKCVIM
T3 sequence (P01116 1-188 isoform P01116-2 G12C): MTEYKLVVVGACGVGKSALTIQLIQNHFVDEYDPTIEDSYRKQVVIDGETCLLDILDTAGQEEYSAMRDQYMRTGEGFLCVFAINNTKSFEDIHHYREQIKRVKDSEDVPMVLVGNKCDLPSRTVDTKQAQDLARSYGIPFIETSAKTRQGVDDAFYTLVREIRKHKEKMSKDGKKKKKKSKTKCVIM
T4 sequence (P01116 1-188 isoform P01116-2 G12V): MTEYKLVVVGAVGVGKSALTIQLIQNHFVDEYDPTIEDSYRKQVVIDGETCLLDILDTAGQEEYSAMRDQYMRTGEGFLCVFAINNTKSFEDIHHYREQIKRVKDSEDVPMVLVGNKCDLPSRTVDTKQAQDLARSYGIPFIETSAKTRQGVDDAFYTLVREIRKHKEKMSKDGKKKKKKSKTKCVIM
T1 sequence (P01116 1-188 isoform P01116-2): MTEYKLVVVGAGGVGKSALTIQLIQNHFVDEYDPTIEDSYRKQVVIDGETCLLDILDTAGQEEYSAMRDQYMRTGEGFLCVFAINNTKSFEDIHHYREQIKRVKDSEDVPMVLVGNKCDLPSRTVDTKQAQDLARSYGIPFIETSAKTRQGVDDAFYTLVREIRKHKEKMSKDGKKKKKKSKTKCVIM

Row | SMILES | IC50 [5] | IC50 [6] | also measured
1 | C#Cc1c(F)ccc2cc(O)cc(-c3ncc4c(N5CCOCC(C)(O)C5)nc(OC[C@]56CCC[C@H]5N(C)CCC6)nc4c3F)c12 (stereo partly drawn) [Example 1-108, 4-(2-{[(4aS,7aR)-1-methyl-octahydro-1H-cyclopenta[b]pyridin-4a-yl]methoxy}-7-(8-ethynyl-7-fluoro-3-hydroxynaphthalen-1-yl)-8-fluoropyrido[4,3-d]pyrimidin-4-yl)-6-methyl-1,4-oxazepan-6-ol] |  |  | IC50 [1]: 17.2 nM; IC50 [2]: 13.2 nM; IC50 [3]: 18.8 nM; IC50 [4]: 140 nM
2 | C#Cc1c(F)ccc2cc(O)cc(-c3ccc4c(N5CC6C(C5)C6(C)C)nc(OC[C@@]56CCCN5C[C@H](F)C6)nc4c3F)c12 (stereo partly drawn) [Example 2-11, 4-(2-{[(2R,7aS)-2-fluoro-hexahydro-1H-pyrrolizin-7a-yl]methoxy}-4-{6,6-dimethyl-3-azabicyclo[3.1.0]hexan-3-yl}-8-fluoroquinazolin-7-yl)-5-ethynyl-6-fluoronaphthalen-2-ol] | 2610 nM | 2620 nM | 
3 | C#Cc1c(F)ccc2cc(O)cc(-c3nc(OC)c4c(N5CCOC6CC65)nc(OC[C@@]56CCCN5C[C@H](F)C6)nc4c3F)c12 (stereo partly drawn) [Example 9-40, 4-(4-(2-oxa-5-azabicyclo[4.1.0]heptan-5-yl)-8-fluoro-2-(((2R,7aS)-2-fluorotetrahydro-1H-pyrrolizin-7a(5H)-yl)methoxy)-5-methoxypyrido[4,3-d]pyrimidin-7-yl)-5-ethynyl-6-fluoronaphthalen-2-ol] | 6 nM |  | 
4 | C#Cc1c(F)ccc2cc(O)cc(-c3ncc4c(N5CCCC(CO)C5)nc(OC[C@@]56CCCN5C[C@H](F)C6)nc4c3F)c12 (single isomer, unassigned) [Example 1-63] | 12800 nM | ≥ 100000 nM | 
5 | CN1CCC[C@@]2(COc3nc(N4CCC[C@@](C)(O)C4)c4cnc(-c5cn(C(F)F)c(=O)c6ccc(C(F)(F)F)cc56)c(F)c4n3)CCC[C@@H]12 [Example 10-8, 4-(2-{[(4aS,7aR)-1-methyl-octahydro-1H-cyclopenta[b]pyridin-4a-yl]methoxy}-8-fluoro-4-[(3R)-3-hydroxy-3-methylpiperidin-1-yl]pyrido[4,3-d]pyrimidin-7-yl)-2-(difluoromethyl)-6-(trifluoromethyl)-1,2-dihydroisoquinolin-1-one] | > 100000 nM | > 100000 nM | 
6 | CN1CCC[C@@]2(COc3nc(N4CCC[C@@](C)(O)C4)c4cnc(-c5cn(C(F)F)c(=O)c6ccccc56)c(F)c4n3)CCC[C@@H]12 [Example 10-6, 4-(2-{[(4aS,7aR)-1-methyl-octahydro-1H-cyclopenta[b]pyridin-4a-yl]methoxy}-8-fluro-4-[(3R)-3-hydroxy-3-methylpiperidin-1-yl]pyrido[4,3-d]pyrimidin-7-yl)-2-(difluoromethyl)-1,2-dihydroisoquinolin-1-one] | > 100000 nM | > 100000 nM | 
7 | C#Cc1c(F)ccc2cc(O)cc(-c3ccc4c(N5CCC(S(=O)(=O)N(C)C)CC5)nc(OC[C@@]56CCCN5C[C@H](F)C6)nc4c3F)c12 [Example 2-19, 1-(2-{[(2R,7aS)-2-fluoro-hexahydro-1H-pyrrolizin-7a-yl]methoxy}-7-(8-ethynyl-7-fluoro-3-hydroxynaphthalen-1-yl)-8-fluoroquinazolin-4-yl)-N,N-dimethylpiperidine-4-sulfonamide] | 2390 nM | > 100000 nM | 
8 | CN1CCC[C@@]2(COc3nc(N4CCC[C@@](C)(O)C4)c4cnc(-c5cnc(OC(F)F)c6ccccc56)c(F)c4n3)CCC[C@@H]12 [Example 10-7, (3R)-1-(2-{[(4aS,7aR)-1-methyl-octahydro-1H-cyclopenta[b]pyridin-4a-yl]methoxy}-7-[1-(difluoromethoxy)isoquinolin-4-yl]-8-fluoropyrido[4,3-d]pyrimidin-4-yl)-3-methylpiperidin-3-ol] | > 100000 nM | > 100000 nM | 
9 | C#Cc1c(F)ccc2cc(O)cc(-c3ncc4c(N5CCOCCC5C)nc(OC[C@]56CCC[C@H]5N(C)CCC6)nc4c3F)c12 (stereo partly drawn) [Example 1-93, 4-(2-{[(4aS,7aR)-1-methyl-octahydro-1H-cyclopenta [b]pyridin-4a-yl]methoxy}-8-fluoro-4-(5-methyl-1,4-oxazepan-4-yl)pyrido[4,3-d]pyrimidin-7-yl)-5-ethynyl-6-fluoronaphthalen-2-ol] |  | 190 nM | 
10 | C#Cc1c(F)ccc2cc(O)cc(-c3ncc4c(N5CCCOCC5)nc(OC[C@@]56C[C@@H](F)CN5CC5(CC5)C6)nc4c3F)c12 [Example 1-106, 4-(2-{[(6′R,7′aR)-6′-fluoro-hexahydrospiro [cyclopropane-1,2′-pyrrolizine]-7′a-yl]methoxy}-8-fluoro-4-(1,4-oxazepan-4-yl)pyrido[4,3-d]pyrimidin-7-yl)-5-ethynyl-6-fluoronaphthalen-2-ol] | 10 nM | 10 nM | 
11 | C#Cc1c(F)ccc2cc(O)cc(-c3ccc4c(N5CCCC(C#N)C5)nc(OC[C@@]56CCCN5C[C@H](F)C6)nc4c3F)c12 (single isomer, unassigned) [Example 2-41] |  | 680 nM | 
12 | C#Cc1c(F)ccc2cc(O)cc(-c3ncc4c(N5CCOCC(CC#N)C5)nc(OC[C@]56CCC[C@H]5N(C)CCC6)nc4c3F)c12 (single isomer, unassigned) [Example 1-130] | 2 nM | 2 nM | 
13 | C#Cc1c(F)ccc2cc(O)cc(-c3ncc4c(N5CCOCCC5C)nc(OC[C@]56CCC[C@H]5N(C)CCC6)nc4c3F)c12 (single isomer, unassigned) [Example 1-142] |  | 560 nM | 
14 | C#Cc1c(F)ccc2cc(O)cc(-c3ncc4c(N5C[C@@H](C)O[C@@H](C)C5)nc(OC[C@]56CCC[C@H]5N(C)CCC6)nc4c3F)c12 [Example 1-12, 4-(2-{[(4aS,7aR)-1-methyl-octahydro-1H-cyclopenta[b]pyridin-4a-yl]methoxy}-4-[(2R,6S)-2,6-dimethylmorpholin-4-yl]-8-fluoropyrido[4,3-d]pyrimidin-7-yl)-5-ethynyl-6-fluoronaphthalen-2-ol] | < 2 nM | 1000 nM | 
15 | C#Cc1c(F)ccc2cc(O)cc(-c3ncc4c(N5CCCC(C#N)C5)nc(OCC5(CN6CCC(F)CC6)CC5)nc4c3F)c12 (single isomer, unassigned) [Example 1-44, 1-[7-(8-ethynyl-7-fluoro-3-hydroxynaphthalen-1-yl)-8-fluoro-2-({1-[(4-fluoropiperidin-1-yl)methyl]cyclopropyl}methoxy)pyrido [4,3-d]pyrimidin-4-yl]piperidine-3-carbonitrile] | 19100 nM | > 100000 nM | 
16 | C#Cc1c(F)ccc2cc(O)cc(-c3ccc4c(N5CC6CCC(C5)N6C(=O)C5CC(F)(F)C5)nc(OC[C@@]56CCCN5C[C@H](F)C6)nc4c3F)c12 [Example 7-4, 4-(2-{[(2R,7aS)-2-fluoro-hexahydro-1H-pyrrolizin-7a-yl]methoxy}-4-[8-(3,3-difluorocyclobutanecarbonyl)-3,8-diazabicyclo[3.2.1]octan-3-yl]-8-fluoroquinazolin-7-yl)-5-ethynyl-6-fluoronaphthalen-2-ol] | < 2 nM | 6600 nM | 
17 | C#Cc1c(F)ccc2cc(O)cc(-c3ncc4c(N5C[C@H]6C[C@@H]5CO6)nc(OC[C@@]56CCCN5C[C@H](F)C6)nc4c3F)c12 [Example 1-37, 4-(2-{[(2R,7aS)-2-fluoro-hexahydro-1H-pyrrolizin-7a-yl]methoxy}-8-fluoro-4-[(1R,4R)-2-oxa-5-azabicyclo[2.2.1]heptan-5-yl]pyrido[4,3-d]pyrimidin-7-yl)-5-ethynyl-6-fluoronaphthalen-2-ol] |  |  | IC50 [2]: 10.5 nM; IC50 [3]: 16.6 nM; IC50 [4]: 54.5 nM
18 | C#Cc1c(F)ccc2cc(O)cc(-c3ncc4c(N5CCCC(C#N)C5)nc(OC[C@@]56CCCN5C[C@H](F)C6)nc4c3F)c12 (single isomer, unassigned) [Example 1-23] |  | 2 nM | 
19 | C#Cc1c(F)ccc2cc(O)cc(-c3nc(OC)c4c(N5CCC[C@](O)(CF)C5)nc(OC[C@]56CCC[C@H]5N(C)CCC6)nc4c3F)c12 [Example 9-26, (R)-1-(7-(8-ethynyl-7-fluoro-3-hydroxynaphthalen-1-yl)-8-fluoro-5-methoxy-2-(((4aS,7aR)-1-methyloctahydro-4aH-cyclopenta[b]pyridin-4a-yl)methoxy)pyrido[4,3-d]pyrimidin-4-yl)-3-(fluoromethyl)piperidin-3-ol] | 6 nM |  | 
20 | CN1CCC[C@@]2(COc3nc(N4CCC[C@@](C)(O)C4)c4cnc(-c5cc(O)ccc5C5CCC5)c(F)c4n3)CCC[C@@H]12 [Example 10-3, (3R)-1-(2-{[(4aS,7aR)-1-methyl-octahydro-1H-cyclopenta[b]pyridin-4a-yl]methoxy}-7-(2-cyclobutyl-5-hydroxyphenyl)-8-fluoropyrido[4,3-d]pyrimidin-4-yl)-3-methylpiperidin-3-ol] | < 2 nM | 1060 nM | 
